Measured values: US20050137220A1 (Pharmacia Corporation, priority 2003, published 2005)
Where a name gives a salt, the structure may show the parent alone. Read-outs that look alike come from different tables or passages of the source.

Assays:
[1] = biological target: MK-2 (Homo sapiens, UniProt P49137); assay: Determination of MK-2 IC50 (phosphorylation of HSP-peptide, anion exchange resin capture assay); assay type: biochemical; details: additional values are replicate IC50 experiments; mixture of stereoisomers implied unless otherwise noted; read-out: MK-2 Avg. IC50
Sequence of MK-2 (P49137 whole entry, species assumed): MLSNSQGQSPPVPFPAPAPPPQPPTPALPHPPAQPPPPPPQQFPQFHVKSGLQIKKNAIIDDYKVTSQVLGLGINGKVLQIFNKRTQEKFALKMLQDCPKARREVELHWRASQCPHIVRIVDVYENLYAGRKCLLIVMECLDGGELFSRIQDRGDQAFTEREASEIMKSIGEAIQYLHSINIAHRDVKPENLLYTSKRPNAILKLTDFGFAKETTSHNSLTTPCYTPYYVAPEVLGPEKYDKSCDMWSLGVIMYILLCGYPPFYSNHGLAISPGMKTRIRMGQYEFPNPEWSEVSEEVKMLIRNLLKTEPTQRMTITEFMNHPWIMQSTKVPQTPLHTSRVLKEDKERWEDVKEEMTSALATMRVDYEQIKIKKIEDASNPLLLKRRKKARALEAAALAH

[2] = system: U937 cells; assay: U937 Cell TNFα Release Assay; assay type: cell-based, human; details: mixture of stereoisomers implied unless otherwise noted
[3] = system: p38; details: murine model of endotoxin-induced shock; cited from earlier work
[4] = system: p38; details: rat adjuvant arthritis; cited from earlier work
[5] = system: p38; details: mouse collagen-induced arthritis; cited from earlier work
[6] = Homo sapiens, U-937, LPS-stimulated differentiated U937 cells, TNFα by ELISA, read-out: TNF Release Assay Avg. IC50
[7] = Homo sapiens, U-937, 4 h, LPS-stimulated differentiated U937 cells, TNFα by ELISA, read-out: TNF Release Assay Avg. IC50
[8] = Homo sapiens, U-937, 4 h, read-out: TNF Release Assay Avg. IC50, LPS-stimulated differentiated U937 cells, TNFα by ELISA

IC50 [1] [µM] | IC50 [2, 7] [µM] | SMILES | further results
108 | – | COc1ccc2[nH]c3c(c2c1)CCC(C)/C3=N/N (centres unmarked) [Example 134, 6-methoxy-2-methyl-2,3,4,9-tetrahydro-1H-carbazol-1-one hydrazone] | IC50 [2, 6]: 7.33 µM
127 | ≥ 100 | COc1ccc2[nH]c3c(c2c1)CCNC3c1nnn[nH]1 (stereo not drawn) [Example 143, 6-methoxy-1-(1H-tetraazol-5-yl)-2,3,4,9-tetrahydro-1H-beta-carboline trifluoroacetate hydrate] | –
167 | 100 | CC(=O)Oc1ccc2[nH]c3c(c2c1)CCNC3C(=O)O (stereo not drawn) [Example 156, 6-(acetyloxy)-2,3,4,9-tetrahydro-1H-beta-carboline-1-carboxylic acid trifluoroacetate] | IC50 [2, 6]: 100 µM
> 200 | 13.3 | CCCC1CNC(C(=O)OC)c2[nH]c3ccc(OC)cc3c21 (stereo not drawn) [Example 188, methyl 6-methoxy-4-propyl-2,3,4,9-tetrahydro-1H-beta-carboline-1-carboxylate] | –
> 200 | 53.2 | COC(=O)C1NCC(C)c2c1[nH]c1ccc(OC)cc21 (stereo not drawn) [Example 189, methyl 6-methoxy-4-methyl-2,3,4,9-tetrahydro-1H-beta-carboline-1-carboxylate] | –
> 200 | 100 | CCn1c2c(c3cc(OC)ccc31)CCNC2C(=O)OC (stereo not drawn) [Example 208, methyl 9-ethyl-6-methoxy-2,3,4,9-tetrahydro-1H-beta-carboline-1-carboxylate trifluoroacetate] | –
> 200 | 88.9 | COC(=O)C1NCCc2c1n(C)c1ccc(OC)cc21 (stereo not drawn) [Example 209, methyl 6-methoxy-9-methyl-2,3,4,9-tetrahydro-1H-beta-carboline-1-carboxylate trifluoroacetate] | –

The remaining lines, values behind:

SMILES | IC50 [1] [µM] | IC50 [2, 7] [µM] | further results
COC(=O)C1c2[nH]c3ccc(O)cc3c2CCN1C (stereo not drawn) [Example 129, methyl 6-hydroxy-2-methyl-2,3,4,9-tetrahydro-1H-beta-carboline-1-carboxylate] | 98.7 | – | IC50 ([2]; read-out: TNF Release Assay Avg. IC50, LPS-stimulated differentiated U937 cells, TNFα by ELISA): 0.523 µM
COc1ccc2[nH]c3c(c2c1)CCN(C)C3C(N)=O (stereo not drawn) [Example 170, 6-methoxy-2-methyl-2,3,4,9-tetrahydro-1H-beta-carboline-1-carboxamide] | > 200 | – | IC50 [2, 8]: > 100 µM
COC(=O)C1NCCc2c1[nH]c1ccc(OCc3ccccc3)cc21 (stereo not drawn) [Example 175, methyl 6-(benzyloxy)-2,3,4,9-tetrahydro-1H-beta-carboline-1-carboxylate hydrochloride] | > 200 | – | IC50 [2, 8]: 26.5 µM
COC(=O)C1c2[nH]c3ccc(OCc4ccccc4)cc3c2CCN1C (stereo not drawn) [Example 176, methyl 6-(benzyloxy)-2-methyl-2,3,4,9-tetrahydro-1H-beta-carboline-1-carboxylate] | > 200 | – | IC50 [2, 8]: 36.4 µM
O=C(O)C1c2[nH]c3ccccc3c2CCN1C(=O)c1ccc(Cl)cc1 (stereo not drawn) [Example 202, 2-(4-chlorobenzeyl)-2,3,4,9-tetrahydro-1H-beta-carboline-1-carboxylic acid] | > 200 | > 100 | –
COc1ccc2[nH]c3c(=O)n(/N=C/c4ccccc4)c(=O)[nH]c3c2c1 [Example 265, 8-methoxy-3-{[(1E)-phenylmethylidene]amino}-1H-pyrimido[5,4-b]indole-2,4(3H,5H)-dione] | > 200 | – | IC50 [2, 6]: > 100 µM
COc1ccc2[nH]c3c(=O)n(N)c(=O)[nH]c3c2c1 [Example 266, 3-amino-8-methoxy-1H-pyrimido[5,4-b]indole-2,4(3H,5H)-dione] | > 200 | – | IC50 [2, 6]: > 100 µM
C[S+]([O-])c1ccc(-c2nc(-c3ccncc3)c(-c3ccc(F)cc3)[nH]2)cc1 (centres unmarked) [SB203580] | – | – | mortality [3]: reduce mortality; development of arthritis [4]: inhibit the development; development of arthritis [5]: inhibit the development
